The compounds below were run against T1, Tyrosinase (Homo sapiens, UniProt P14679) (assay: Inhibitory activity against tyrosinase).
T1 sequence (P14679 whole entry): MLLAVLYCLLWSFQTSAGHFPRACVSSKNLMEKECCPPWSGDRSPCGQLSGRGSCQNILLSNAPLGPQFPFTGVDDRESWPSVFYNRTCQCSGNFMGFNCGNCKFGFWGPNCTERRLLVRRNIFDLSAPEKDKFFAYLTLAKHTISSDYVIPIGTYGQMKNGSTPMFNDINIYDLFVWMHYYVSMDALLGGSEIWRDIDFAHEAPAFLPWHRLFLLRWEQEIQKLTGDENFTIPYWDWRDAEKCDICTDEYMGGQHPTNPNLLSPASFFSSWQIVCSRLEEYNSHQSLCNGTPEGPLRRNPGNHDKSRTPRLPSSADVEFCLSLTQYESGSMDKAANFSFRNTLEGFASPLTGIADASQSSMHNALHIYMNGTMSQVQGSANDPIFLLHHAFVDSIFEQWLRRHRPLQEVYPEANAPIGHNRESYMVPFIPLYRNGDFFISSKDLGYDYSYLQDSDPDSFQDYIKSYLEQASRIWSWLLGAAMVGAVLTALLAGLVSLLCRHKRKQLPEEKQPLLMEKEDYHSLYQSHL

Row | SMILES | IC50 [µM]
1 | CC(C)(O)[C@@H]1CC[C@](C)([C@H]2[C@@H](O)C[C@@]3(C)[C@@H]4C[C@H](O[C@H]5O[C@@H](CO)[C@H](O)[C@H](O)[C@@H]5O)[C@H]5C(C)(C)[C@@H](O[C@@H]6OC[C@@H](O)[C@H](O)[C@H]6O)CC[C@@]56C[C@@]46CC[C@]23C)O1 [CYCLOSIEVERSIOSIDE] | 92.3
2 | CC(C)(O)CCC(=O)[C@@](C)(O)[C@H]1[C@H](O)C[C@@]2(C)[C@@H]3CC=C4[C@@H](C=C(O[C@@H]5O[C@H](CO)[C@@H](O)[C@H](O)[C@H]5O)C(=O)C4(C)C)[C@]3(C)C(=O)C[C@]12C [BRYOAMARIDE] | 85
3 | CC(=O)O[C@@H]1[C@@H](O[C@@H]2OC[C@H](O)[C@H](O)[C@H]2O)[C@H](O[C@H]2CC[C@]34C[C@]35CC[C@]3(C)[C@@H]([C@@]6(C)CC[C@H](C(C)(C)O)O6)[C@@H](O)C[C@@]3(C)[C@@H]5C[C@H](O[C@@H]3OC[C@@H](O)[C@H](O)[C@H]3O)[C@H]4C2(C)C)OC[C@H]1O [ASKENDOSIDE B] | 13.9
4 | CC(C)(O)[C@@H]1CC[C@](C)([C@H]2[C@@H](O)C[C@@]3(C)[C@@H]4C[C@H](O[C@@H]5OC[C@@H](O)[C@H](O)[C@H]5O)[C@H]5C(C)(C)[C@@H](O[C@@H]6OC[C@@H](O)[C@H](O)[C@H]6O[C@@H]6OC[C@H](O)[C@H](O)[C@H]6O)CC[C@@]56C[C@@]46CC[C@]23C)O1 [ASKENDOSIDE D] | 48.9

More lines, now with the values ahead:

Row | IC50 [µM] | SMILES
5 | 102 | C[C@@H]1O[C@@H](O[C@H]2C[C@@H]3[C@]4(CC[C@]5(C)[C@@H]([C@@]6(C)CC[C@@H](C(C)(C)O)O6)[C@@H](O)C[C@@]35C)C[C@@]43CC[C@H](O[C@@H]4OC[C@@H](O)[C@H](O)[C@H]4O)C(C)(C)[C@H]23)[C@H](O)[C@H](O)[C@H]1O [CYCLOCARPOSIDE]
6 | 54.6 | C[C@@H]1C[C@H]2O[C@]3(C[C@@]4(C)[C@@H]5[C@@H](O)C[C@H]6C(C)(C)[C@@H](O[C@@H]7OC[C@@H](O)[C@H](O)[C@H]7O)CC[C@@]67C[C@@]57CC[C@]4(C)[C@@H]13)O[C@@H]2C(C)(C)O[C@@H]1O[C@H](CO)[C@@H](O)[C@H](O)[C@H]1O [CYCLOORBICOSIDE G]
